Results from the kinase profiling compilation of Christmann-Franck et al. (2016).
“And” between values parts separate entries of the source, which are not always exact repeats. Identical values can stand only once.

Assays:
Settings in all cases: compound 10.0 µM
[1] = biological target: CAMKK2 (human) (UniProt Q96RR4)
[2] = biological target: EPHB2 (human) (UniProt P29323)
[3] = biological target: TSSK2 (human) (UniProt Q96PF2)
[4] = biological target: TAOK3 (human) (UniProt Q9H2K8)
[5] = biological target: WNK3 (human) (UniProt Q9BYP7)
[6] = biological target: KDR (human) (UniProt P35968)
[7] = biological target: FYN (human) (UniProt P06241)
[8] = biological target: PTK6 (human) (UniProt Q13882)
[9] = biological target: PAK1 (human) (UniProt Q13153)
Sequence of PAK1 (human) (Q13153 whole entry, looked up): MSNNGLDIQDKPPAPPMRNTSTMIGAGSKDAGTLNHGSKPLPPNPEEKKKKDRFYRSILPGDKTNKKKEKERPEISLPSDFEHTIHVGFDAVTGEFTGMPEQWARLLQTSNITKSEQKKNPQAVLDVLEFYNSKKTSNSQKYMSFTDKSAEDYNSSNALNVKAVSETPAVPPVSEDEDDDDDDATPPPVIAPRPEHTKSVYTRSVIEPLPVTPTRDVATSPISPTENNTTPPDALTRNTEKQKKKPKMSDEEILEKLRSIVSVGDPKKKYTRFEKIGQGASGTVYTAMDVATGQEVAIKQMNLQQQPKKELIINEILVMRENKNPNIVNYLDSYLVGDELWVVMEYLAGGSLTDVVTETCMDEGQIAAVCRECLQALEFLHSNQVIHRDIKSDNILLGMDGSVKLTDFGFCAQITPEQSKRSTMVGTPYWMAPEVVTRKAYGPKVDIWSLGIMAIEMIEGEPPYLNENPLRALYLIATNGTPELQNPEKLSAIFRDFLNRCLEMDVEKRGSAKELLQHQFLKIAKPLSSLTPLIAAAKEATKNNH

[10] = biological target: MAP4K5 (human) (UniProt Q9Y4K4)
[11] = biological target: SRC (human) (UniProt P12931)
[12] = biological target: CSF1R (human) (UniProt P07333)
[13] = biological target: CSNK2A1 (human) (UniProt P68400)
[14] = biological target: STK17A (human) (UniProt Q9UEE5)
[15] = biological target: PRKCD (human) (UniProt Q05655)
[16] = biological target: NTRK3 (human) (UniProt Q16288)
[17] = biological target: PRKG1 (human) (UniProt Q13976)
Sequence of PRKG1 (human) (Q13976 whole entry, looked up): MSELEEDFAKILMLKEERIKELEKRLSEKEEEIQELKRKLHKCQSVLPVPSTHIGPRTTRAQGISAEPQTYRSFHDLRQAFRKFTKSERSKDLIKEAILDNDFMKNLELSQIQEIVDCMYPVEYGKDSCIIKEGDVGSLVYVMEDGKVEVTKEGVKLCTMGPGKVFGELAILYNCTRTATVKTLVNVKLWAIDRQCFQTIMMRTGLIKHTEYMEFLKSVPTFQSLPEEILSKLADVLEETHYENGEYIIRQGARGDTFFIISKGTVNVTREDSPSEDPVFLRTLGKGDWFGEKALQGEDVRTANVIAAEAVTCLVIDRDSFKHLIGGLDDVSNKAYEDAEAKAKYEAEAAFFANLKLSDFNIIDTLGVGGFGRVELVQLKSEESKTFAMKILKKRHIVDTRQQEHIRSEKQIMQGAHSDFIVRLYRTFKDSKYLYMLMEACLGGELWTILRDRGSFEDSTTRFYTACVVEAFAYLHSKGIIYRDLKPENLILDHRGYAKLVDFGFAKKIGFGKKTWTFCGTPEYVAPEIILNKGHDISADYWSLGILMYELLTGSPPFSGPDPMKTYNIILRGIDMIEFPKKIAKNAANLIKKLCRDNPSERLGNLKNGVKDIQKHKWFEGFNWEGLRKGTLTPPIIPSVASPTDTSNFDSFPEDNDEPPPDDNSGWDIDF

[18] = biological target: MAP3K11 (human) (UniProt Q16584)
[19] = biological target: PIM2 (human) (UniProt Q9P1W9)
Sequence of PIM2 (human) (Q9P1W9 whole entry, looked up): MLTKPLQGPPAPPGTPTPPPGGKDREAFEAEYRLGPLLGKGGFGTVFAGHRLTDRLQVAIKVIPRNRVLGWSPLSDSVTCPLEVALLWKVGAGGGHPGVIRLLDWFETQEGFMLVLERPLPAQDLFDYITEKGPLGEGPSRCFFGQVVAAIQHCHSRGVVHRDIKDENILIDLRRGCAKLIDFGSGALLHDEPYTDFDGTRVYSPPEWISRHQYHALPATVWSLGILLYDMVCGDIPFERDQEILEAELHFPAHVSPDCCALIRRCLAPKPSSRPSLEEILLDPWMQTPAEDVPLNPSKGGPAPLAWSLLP

[20] = biological target: CDC42BPB (human) (UniProt Q9Y5S2)
[21] = biological target: MAP2K2 (human) (UniProt P36507)
[22] = biological target: MERTK (human) (UniProt Q12866)
[23] = biological target: NTRK1 (human) (UniProt P04629)
Sequence of NTRK1 (human) (P04629 whole entry, looked up): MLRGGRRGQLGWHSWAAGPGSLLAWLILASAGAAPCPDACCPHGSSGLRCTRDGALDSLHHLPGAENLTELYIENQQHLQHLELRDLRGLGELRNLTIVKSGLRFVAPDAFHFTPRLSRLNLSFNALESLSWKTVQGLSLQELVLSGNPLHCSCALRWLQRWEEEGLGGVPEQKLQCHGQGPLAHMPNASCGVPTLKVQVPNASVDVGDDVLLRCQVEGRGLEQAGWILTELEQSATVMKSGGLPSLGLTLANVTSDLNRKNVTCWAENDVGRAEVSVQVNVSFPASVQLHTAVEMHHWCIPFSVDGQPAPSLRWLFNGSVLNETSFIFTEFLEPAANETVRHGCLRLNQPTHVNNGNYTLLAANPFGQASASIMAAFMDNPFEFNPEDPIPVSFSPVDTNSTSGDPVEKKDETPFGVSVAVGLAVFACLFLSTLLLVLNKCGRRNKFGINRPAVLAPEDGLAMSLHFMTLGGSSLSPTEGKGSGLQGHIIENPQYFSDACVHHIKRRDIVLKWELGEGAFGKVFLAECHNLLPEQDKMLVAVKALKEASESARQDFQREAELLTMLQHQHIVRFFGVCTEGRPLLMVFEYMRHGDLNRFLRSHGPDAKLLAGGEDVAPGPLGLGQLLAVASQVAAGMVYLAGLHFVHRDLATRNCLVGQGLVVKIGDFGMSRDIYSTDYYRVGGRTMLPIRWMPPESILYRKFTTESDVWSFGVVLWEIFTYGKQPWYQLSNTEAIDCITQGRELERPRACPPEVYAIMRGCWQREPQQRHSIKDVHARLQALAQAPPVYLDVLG

[24] = biological target: RPS6KB2 (human) (UniProt Q9UBS0)
[25] = biological target: BRSK1 (human) (UniProt Q8TDC3)
[26] = biological target: CAMK2A (human) (UniProt Q9UQM7)
[27] = biological target: AKT1 (human) (UniProt P31749)
[28] = biological target: ULK1 (human) (UniProt O75385)
[29] = biological target: MARK1 (human) (UniProt Q9P0L2)
[30] = biological target: RPS6KA5 KD1 KD2 (human) (UniProt O75582)
Sequence of RPS6KA5 KD1 KD2 (human) (O75582 whole entry, looked up): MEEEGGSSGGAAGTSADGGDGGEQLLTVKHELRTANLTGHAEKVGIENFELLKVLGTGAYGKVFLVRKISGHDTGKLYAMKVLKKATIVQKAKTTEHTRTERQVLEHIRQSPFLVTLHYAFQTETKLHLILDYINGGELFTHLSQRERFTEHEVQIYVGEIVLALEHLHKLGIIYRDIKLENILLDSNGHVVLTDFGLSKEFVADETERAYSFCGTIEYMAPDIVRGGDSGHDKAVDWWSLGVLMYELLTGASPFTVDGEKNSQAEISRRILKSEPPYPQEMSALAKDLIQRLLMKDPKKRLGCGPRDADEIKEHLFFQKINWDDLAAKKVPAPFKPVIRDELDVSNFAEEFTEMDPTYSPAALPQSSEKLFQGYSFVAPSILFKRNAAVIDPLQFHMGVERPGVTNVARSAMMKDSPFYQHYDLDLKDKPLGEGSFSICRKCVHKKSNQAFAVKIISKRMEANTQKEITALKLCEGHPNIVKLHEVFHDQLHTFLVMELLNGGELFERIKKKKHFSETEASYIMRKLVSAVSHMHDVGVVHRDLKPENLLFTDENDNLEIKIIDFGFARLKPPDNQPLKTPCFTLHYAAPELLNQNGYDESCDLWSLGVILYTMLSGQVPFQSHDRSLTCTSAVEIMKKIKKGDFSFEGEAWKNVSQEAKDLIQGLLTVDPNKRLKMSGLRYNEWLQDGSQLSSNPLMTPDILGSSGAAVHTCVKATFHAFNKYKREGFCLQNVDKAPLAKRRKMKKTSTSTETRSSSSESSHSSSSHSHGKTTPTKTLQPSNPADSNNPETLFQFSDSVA

[31] = biological target: TTK (human) (UniProt P33981)
[32] = biological target: ITK (human) (UniProt Q08881)
[33] = biological target: CDK6 CCND3 (human) (UniProt Q00534+P30281)
[34] = biological target: ADRBK2 (human) (UniProt P35626)
[35] = biological target: MAP3K14 (human) (UniProt Q99558)
[36] = biological target: CAMK2G (human) (UniProt Q13555)
[37] = biological target: RPS6KA2 KD1 KD2 (human) (UniProt Q15349)
[38] = biological target: EPHA2 (human) (UniProt P29317)
[39] = biological target: TNK2 (human) (UniProt Q07912)
[40] = biological target: RPS6KA1 KD1 KD2 (human) (UniProt Q15418)
[41] = biological target: CAMK1G (human) (UniProt Q96NX5)
[42] = biological target: PHKG1 (human) (UniProt Q16816)
[43] = biological target: ROS1 (human) (UniProt P08922)
[44] = biological target: HIPK2 (human) (UniProt Q9H2X6)
Sequence of HIPK2 (human) (Q9H2X6 whole entry, looked up): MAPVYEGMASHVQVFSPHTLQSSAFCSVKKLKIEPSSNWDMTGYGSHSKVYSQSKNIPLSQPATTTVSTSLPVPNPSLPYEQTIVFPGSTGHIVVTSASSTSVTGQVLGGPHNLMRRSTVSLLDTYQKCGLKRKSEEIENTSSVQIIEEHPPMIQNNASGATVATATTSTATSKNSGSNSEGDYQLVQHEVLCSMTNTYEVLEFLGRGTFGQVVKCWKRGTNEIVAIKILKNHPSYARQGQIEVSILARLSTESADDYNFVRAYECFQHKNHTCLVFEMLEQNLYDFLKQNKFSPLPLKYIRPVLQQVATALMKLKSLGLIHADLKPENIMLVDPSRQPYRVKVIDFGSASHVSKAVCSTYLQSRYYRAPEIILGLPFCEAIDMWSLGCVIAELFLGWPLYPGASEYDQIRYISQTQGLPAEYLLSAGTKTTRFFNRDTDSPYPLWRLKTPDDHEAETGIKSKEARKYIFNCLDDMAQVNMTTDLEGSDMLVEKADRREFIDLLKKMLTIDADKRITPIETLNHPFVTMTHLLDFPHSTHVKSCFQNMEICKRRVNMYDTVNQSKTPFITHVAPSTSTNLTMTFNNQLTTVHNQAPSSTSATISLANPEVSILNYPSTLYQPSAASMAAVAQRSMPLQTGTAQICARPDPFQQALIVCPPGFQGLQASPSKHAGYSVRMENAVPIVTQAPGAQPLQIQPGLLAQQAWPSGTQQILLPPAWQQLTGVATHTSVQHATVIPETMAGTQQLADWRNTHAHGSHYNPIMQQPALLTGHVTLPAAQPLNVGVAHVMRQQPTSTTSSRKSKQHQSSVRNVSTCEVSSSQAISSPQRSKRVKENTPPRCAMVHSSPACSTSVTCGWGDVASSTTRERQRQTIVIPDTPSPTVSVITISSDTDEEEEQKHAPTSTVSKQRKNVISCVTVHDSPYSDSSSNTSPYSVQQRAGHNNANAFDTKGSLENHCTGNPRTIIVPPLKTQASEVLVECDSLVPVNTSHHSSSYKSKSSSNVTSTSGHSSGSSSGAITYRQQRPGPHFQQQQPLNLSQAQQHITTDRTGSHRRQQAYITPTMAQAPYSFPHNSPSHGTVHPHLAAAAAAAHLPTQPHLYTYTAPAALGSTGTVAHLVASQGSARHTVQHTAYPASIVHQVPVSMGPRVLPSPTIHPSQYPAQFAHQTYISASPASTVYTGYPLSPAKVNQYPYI

Sequence of TSSK2 (human) (Q96PF2 whole entry, looked up): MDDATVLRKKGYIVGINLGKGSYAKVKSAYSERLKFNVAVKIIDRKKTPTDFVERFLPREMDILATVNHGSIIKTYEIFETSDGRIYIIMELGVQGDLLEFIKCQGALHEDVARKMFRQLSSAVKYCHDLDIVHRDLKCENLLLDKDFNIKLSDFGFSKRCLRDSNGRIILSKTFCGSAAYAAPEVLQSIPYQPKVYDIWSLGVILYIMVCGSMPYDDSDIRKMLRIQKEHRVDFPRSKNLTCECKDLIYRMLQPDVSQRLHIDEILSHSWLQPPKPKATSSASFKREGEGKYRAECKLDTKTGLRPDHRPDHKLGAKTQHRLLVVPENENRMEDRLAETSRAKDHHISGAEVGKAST

## CC[C@H](C)n1cc(C)c2c(C(=O)NCc3c(C)cc(C)[nH]c3=O)cc(-c3ccc(N4CCNCC4)nc3)cc21
[1]
  residual activity: 98%
[2]
  residual activity: 95.5%
[3]
  residual activity: 93.5%
[4]
  residual activity: 101%
[5]
  residual activity: 95%
[6]
  residual activity: 104%
[7]
  residual activity: 100%
[8]
  residual activity: 93%
[9]
  residual activity: 106%
[10]
  residual activity: 102%
[11]
  residual activity: 83.5%
[12]
  residual activity: 95%
[13]
  residual activity: 110%
[14]
  residual activity: 96.5%
[15]
  residual activity: 102%
[16]
  residual activity: 102%
[17]
  residual activity: 95% and 90.5%
[18]
  residual activity: 95%
[19]
  residual activity: 99%
[20]
  residual activity: 101%
[21]
  residual activity: 102%
[22]
  residual activity: 98.5%
[23]
  residual activity: 106%
[24]
  residual activity: 92%
[25]
  residual activity: 99.5%
[26]
  residual activity: 104%
[27]
  residual activity: 91%
[28]
  residual activity: 98%
[29]
  residual activity: 95.5%
[30]
  residual activity: 108%
[31]
  residual activity: 102%
[32]
  residual activity: 89.5%
[33]
  residual activity: 102%
[34]
  residual activity: 105%
[35]
  residual activity: 99%
[36]
  residual activity: 99.5%
[37]
  residual activity: 92%
[38]
  residual activity: 106%
[39]
  residual activity: 93.5%
[40]
  residual activity: 76%
[41]
  residual activity: 84%
[42]
  residual activity: 98%
[43]
  residual activity: 110%
[44]
  residual activity: 90%
